Key:
Type in all cases: in vivo
Setaria faberi (SETFA) [1] = experiment: Pre-emergence herbicidal glasshouse test; details: evaluated after 13 days, five-point scale
Zea mays (ZEAMX) [2] = experiment: Pre-emergence herbicidal glasshouse test; details: evaluated after 13 days, five-point scale
[3] = tested on: Amaranthus retoflexus (AMARE); experiment: Post-emergence herbicidal glasshouse test; details: sprayed after 8 days cultivation, evaluated after 13 days, five-point scale
Procedure: (§1) Seeds of a variety of test species are sown in standard soil in pots (Ipomoea hederacea (IPOHE), Setaria faberi (SETFA), Zea mays (ZEAMX), Echinochloa crus-galli (ECHCG), Amaranthus palmeri (AMAPA), Amaranthus retoflexus (AMARE)). After 8 days cultivation under controlled conditions in a glasshouse (at 24° C./16° C., day/night; 14 hours light; 65% humidity), the plants are sprayed with an aqueous spray solution derived from the formulation of the technical active ingredient in acetone/water (50:50) solution containing 0.5% Tween 20 (polyoxyethelyene sorbitan monolaurate, CAS RN 9005-64-5). Compounds are applied at 1000 g/ha unless otherwise stated. The test plants are then grown in a glasshouse under controlled conditions in a glasshouse (at 24° C./16° C., day/night; 14 hours light; 65% humidity) and watered twice daily. After 13 days the test is evaluated for the percentage damage caused to the plant. The biological activities are shown in the following table on a five-point scale (5=81-100%; 4=61-80%; 3=41-60%; 2=21-40%; 1=0-20%; -=not tested).

[4] = tested on: Ipomoea hederacea (IPOHE); experiment: Post-emergence herbicidal glasshouse test; details: sprayed after 8 days cultivation, evaluated after 13 days, five-point scale
Procedure: as §1

[5] = tested on: Amaranthus palmeri (AMAPA); experiment: Post-emergence herbicidal glasshouse test; details: sprayed after 8 days cultivation, evaluated after 13 days, five-point scale
Procedure: as §1

Setaria faberi (SETFA) [6] = experiment: Post-emergence herbicidal glasshouse test; details: sprayed after 8 days cultivation, evaluated after 13 days, five-point scale
Procedure: as §1

[7] = tested on: Echinochloa crus-galli (ECHCG); experiment: Post-emergence herbicidal glasshouse test; details: sprayed after 8 days cultivation, evaluated after 13 days, five-point scale
Procedure: as §1

Zea mays (ZEAMX) [8] = experiment: Post-emergence herbicidal glasshouse test; details: sprayed after 8 days cultivation, evaluated after 13 days, five-point scale
Procedure: as §1

[9] = tested on: Echinochloa crus-galli (ECHCG); experiment: Pre-emergence herbicidal glasshouse test; details: evaluated after 13 days, five-point scale
[10] = tested on: Ipomoea hederacea (IPOHE); experiment: Pre-emergence herbicidal glasshouse test; details: evaluated after 13 days, five-point scale
[11] = tested on: Amaranthus palmeri (AMAPA); experiment: Pre-emergence herbicidal glasshouse test; details: evaluated after 13 days, five-point scale
[12] = tested on: Amaranthus retoflexus (AMARE); experiment: Pre-emergence herbicidal glasshouse test; details: evaluated after 13 days, five-point scale

Structure (SMILES)	percentage damage caused to the plant, SEFTA (Setaria faberi (SETFA) [1]; 1000 g/ha)	percentage damage caused to the plant, ZEAMX (Zea mays (ZEAMX) [2]; 1000 g/ha)	percentage damage caused to the plant, IPOHE ([4]; 1000 g/ha)	percentage damage caused to the plant, SEFTA (Setaria faberi (SETFA) [6]; 1000 g/ha)	percentage damage caused to the plant, ECHCG ([7]; 1000 g/ha)	percentage damage caused to the plant, ZEAMX (Zea mays (ZEAMX) [8]; 1000 g/ha)	percentage damage caused to the plant, ECHCG ([9]; 1000 g/ha)	percentage damage caused to the plant, IPOHE ([10]; 1000 g/ha)	other results
CCn1c(C)c(-n2ccc(C(F)(F)F)n2)c(=O)c(C(=O)O)c1-c1ccc(Cl)c(Cl)c1 [Compound 1, 2-(3,4-dichlorophenyl)-1-ethyl-6-methyl-4-oxo-5-[3-(trifluoromethyl)pyrazol-1-yl]pyridine-3-carboxylic acid]	1 (1=0-20%)	0	2 (2=21-40%)	1 (1=0-20%)	1 (1=0-20%)	1 (1=0-20%)	0	4 (4=61-80%)	percentage damage caused to the plant, AMARE ([3]; 1000 g/ha): 2 (2=21-40%); percentage damage caused to the plant, AMAPA ([5]; 1000 g/ha): 3 (3=41-60%); percentage damage caused to the plant, AMAPA ([11]; 1000 g/ha): 0; percentage damage caused to the plant, AMARE ([12]; 1000 g/ha): 0
CCn1c(C)c(-n2cc(Cl)cn2)c(=O)c(C(=O)O)c1-c1ccc(Cl)c(Cl)c1 [Compound 3, 5-(4-chloropyrazol-1-yl)-2-(3,4-dichlorophenyl)-1-ethyl-6-methyl-4-oxo-pyridine-3-carboxylic acid]									percentage damage caused to the plant, SEFTA (Setaria faberi (SETFA) [1]; 250 g/Ha): 2 (2=21-40%); percentage damage caused to the plant, ZEAMX (Zea mays (ZEAMX) [2]; 250 g/Ha): 0; percentage damage caused to the plant, AMARE ([3]; 250 g/Ha): 3 (3=41-60%); percentage damage caused to the plant, IPOHE ([4]; 250 g/Ha): 2 (2=21-40%); percentage damage caused to the plant, AMAPA ([5]; 250 g/Ha): 3 (3=41-60%); percentage damage caused to the plant, SEFTA (Setaria faberi (SETFA) [6]; 250 g/Ha): 3 (3=41-60%); percentage damage caused to the plant, ECHCG ([7]; 250 g/Ha): 3 (3=41-60%); percentage damage caused to the plant, ZEAMX (Zea mays (ZEAMX) [8]; 250 g/Ha): 2 (2=21-40%); percentage damage caused to the plant, ECHCG ([9]; 250 g/Ha): 1 (1=0-20%); percentage damage caused to the plant, IPOHE ([10]; 250 g/Ha): 0; percentage damage caused to the plant, AMAPA ([11]; 250 g/Ha): 0; percentage damage caused to the plant, AMARE ([12]; 250 g/Ha): 0
CCn1c(C)c(-n2ccc(Cl)n2)c(=O)c(C(=O)O)c1-c1ccc(Cl)c(Cl)c1 [Compound 2, 5-(3-chloropyrazol-1-yl)-2-(3,4-dichlorophenyl)-1-ethyl-6-methyl-4-oxo-pyridine-3-carboxylic acid]	3 (3=41-60%)	1 (1=0-20%)	4 (4=61-80%)	4 (4=61-80%)	4 (4=61-80%)	3 (3=41-60%)	0	4 (4=61-80%)	
